Source: patent US4777290A, “10,10-dihydro-10-[(substituted-carbonyl)imino]-10-phe nyl-10H-phenoxaphosphines” (American Cyanamid Company, priority 1987, dated 1988)
Where “and” joins values, the source holds several entries; their conditions need not be identical. Equal values may be shown once. Where a name gives a salt, the structure may show the parent alone.

Key:
[1] = test system: Spontaneously Hypertensive Rats; assay: Diuretic activity in spontaneously hypertensive rats; format: in vivo, male spontaneously hypertensive rats of Okamoto strain; conditions: 0-5 hour urine
Method: The diuretic activity of the compounds of this invention was determined according to the method of Chan, P. S. and Poorvin, D., Sequential method for combined screening antihypertensive and diuretic agents in the same spontaneously hypertensive rat. Clinical and Experimental Hypertension, 1 (6), 817-830 (1979).
Male spontaneously hypertensive rats of Okamoto strain, 16 weeks old, Taconic Farms Inc., were used in the test. These rats were kept on Purina laboratory chow and tap water ad libitum for 8 weeks before use. The male adult rats (about 300 g) were dosed by gavage with a test compound at 100 mg/kg at zero hour with the exception of one male adult rat in which the test compound dosage was 50 mg/kg. The test compound was suspended in 3% preboiled starch at 50 mg/ml. Each rat was put in metabolism cage. The 0-5 hour urine was collected and urinary sodium and potassium were determined using a Beckman Astra 4.

plasma renin activity = assay: Inhibition of evoked increase of plasma renin activity (PRA) in conscious rats; format: in vivo, male Wistar rats; conditions: oral, 30 min before provocative treatment, Wistar rats
Method: Inhibition of evoked increase of plasma renin activity was determined by the following test.
Compounds were tested for their ability to prevent drug-induced elevation of plasma renin activity (PRA) in concious, male Wistar rats (180-200 g, Charles River Lab.). PRA elevation was induced by a combined oral provocative treatment (C) of hydrochlorothiazide (10 mg/kg) and 1-(3-benzoyl-3-mercapto-2-methylpropionyl-L-proline, acetate (U.S. Pat. No. 4,226,775) (1 mg/kg), prepared by compounding in a mortar and pestle with preboiled 3% starch suspension. This treatment provided the daily maximum PRA. The daily minimum PRA was obtained from rats given oral starch suspension (S) alone. The magnitude of drug effect on PRA elevation was ascertained from rats pretreated orally with test agent (D), at the indicated doses, 30 minutes prior to administration of provocative treatment (C). The test agent was also compounded in preboiled 3% starch suspension. The dose volumes for both pretreatment and provocative treatment were 2 ml/kg. One hour after provocative treatment the rats were sacrificed by decapitation and the first 3 seconds of blood collected in two chilled vacutainer tubes containing 40 μl of 150 mg/ml tripotassium EDTA. The plasmas, which were obtained by centrifugation for 20 minutes at 4° C. and 3000×G, were incubated (one of each pair at 37° C., the other at 4° C.) at pH 6.8 in 50 mM phosphate buffer to produce angiotensin I. The incubates contained peptidase inhibitors to prevent angiotensin I degradation and the incubation buffer contained 1 mg/ml lysozyme (Sigma Grade III) used as an antiabsorbant. The incubates were diluted 20 fold in cold 100 mM tris buffer (pH adjusted to 7.4 with glacial acetic acid) also containing 1 mg/ml lysozyme, and then frozen. Diluted incubates were assayed within 3 days for angiotensin I content by radioimmunoassay according to a modification of the method of Haber, et al., J. Clin. Endocrin., 29, 1349-1355 (1969).
PRA is calculated as follows:
PRA([…])=PRA 37° C.-PRA 4° C.
Percent inhibition of PRA elevation is calculated as follows: [formula]

Stability in solution = format: physicochemical
[2] = 100 mg/kg by gavage, hydrobromide
[3] = 100 mg/kg by gavage, hydrochloride

In the case of `N=P1(c2ccccc2)c2ccccc2Oc2ccccc21` [10,10-Dihydro-10-imino-10-phenyl-10H-phenoxaphosphine, hydrobromide], the “Potassium (urinary)” value [1, 2] is reported as 0.26 MEQ/5 Hours, the “Sodium (urinary)” value [1, 2] is reported as 1.12 MEQ/5 Hours and the “Volume (urine)” value [1, 2] is reported as 8.0 mL.

For `O=C(N=P1(c2ccccc2)c2ccccc2Oc2ccccc21)OCc1ccncc1` [10,10-dihydro-10-phenyl-10-[[(4-pyridylmethoxy)carbonyl]imino]-10H-phenoxaphosphine], the “Potassium (urinary)” value ([1]; 100 mg/kg by gavage) was 0.40 MEQ/5 Hours, the “Sodium (urinary)” value ([1]; 100 mg/kg by gavage) was 2.28 MEQ/5 Hours and the “Volume (urine)” value ([1]; 100 mg/kg by gavage) was 18.0 mL.

For `O=C(N=P1(c2ccccc2)c2ccccc2Oc2ccccc21)OC1CCOC1` (stereo not drawn) [10,10-Dihydro-10-phenyl-10-[[[(tetrahydro-3-furanyl)-oxy]carbonyl]imino]-10H-phenoxaphosphine], the “Potassium (urinary)” value ([1]; 100 mg/kg by gavage) was 0.73 MEQ/5 Hours, the “Sodium (urinary)” value ([1]; 100 mg/kg by gavage) was 1.49 MEQ/5 Hours and the “Volume (urine)” value ([1]; 100 mg/kg by gavage) was 14.3 mL.

In the case of `O=C(N=P1(c2ccccc2)c2ccccc2Oc2ccccc21)OCc1cccnc1` [10,10-Dihydro-10-phenyl-10-[[(3-pyridylmethoxy)carbonyl]imino]-10H-phenoxaphosphine], the “Potassium (urinary)” value ([1]; 100 mg/kg by gavage) is reported as 0.59 MEQ/5 Hours, the “Sodium (urinary)” value ([1]; 100 mg/kg by gavage) is reported as 2.61 MEQ/5 Hours and the “Volume (urine)” value ([1]; 100 mg/kg by gavage) is reported as 20.5 mL.

In the case of `O=C(N=P1(c2ccccc2)c2ccccc2Oc2ccccc21)OCc1ccccn1` [10,10-Dihydro-10-phenyl-10-[[(2-pyridylmethoxy)carbonyl]imino]-10H-phenoxaphosphine], the “Potassium (urinary)” value ([1]; 50 mg/kg by gavage) is reported as 0.74 MEQ/5 Hours, the “Sodium (urinary)” value ([1]; 50 mg/kg by gavage) is reported as 1.26 MEQ/5 Hours and the “Volume (urine)” value ([1]; 50 mg/kg by gavage) is reported as 10.8 mL.

With `N=P1(c2ccccc2)c2ccccc2Oc2ccccc21` [10,10-Dihydro-10-imino-10-phenyl-10H-phenoxaphosphine, hydrochloride] the “Potassium (urinary)” value [1, 3] was 0.59 MEQ/5 Hours, the “Sodium (urinary)” value [1, 3] was 2.01 MEQ/5 Hours and the “Volume (urine)” value [1, 3] was 16.5 mL.

With `C=CCOC(=O)N=P1(c2ccccc2)c2ccccc2Oc2ccccc21` [10,10-Dihydro-10-phenyl-10-[[(2-propenyloxy)carbonyl]imino]-10H-phenoxaphosphine] the “Potassium (urinary)” value ([1]; 100 mg/kg by gavage) was 0.61 MEQ/5 Hours, the “Sodium (urinary)” value ([1]; 100 mg/kg by gavage) was 1.27 MEQ/5 Hours and the “Volume (urine)” value ([1]; 100 mg/kg by gavage) was 12.0 mL.

In the case of `N=P1(c2ccccc2)c2ccccc2Oc2ccccc21` [10,10-Dihydro-10-imino-10-phenyl-10H-phenoxaphosphine, bis(t] [10,10-Dihydro-10-imino-10-phenyl-10H-phenoxaphosphine, bis(trifluoroacetate)], the “Potassium (urinary)” value ([1]; 100 mg/kg by gavage) is reported as 0.66 MEQ/5 Hours, the “Sodium (urinary)” value ([1]; 100 mg/kg by gavage) is reported as 1.16 MEQ/5 Hours and the “Volume (urine)” value ([1]; 100 mg/kg by gavage) is reported as 12.5 mL.

For `C#CCOC(=O)N=P1(c2ccccc2)c2ccccc2Oc2ccccc21` [10,10-Dihydro-10-phenyl-10-[[(2-propynyloxy)carbonyl]imino]-10H-phenoxaphosphine], the “Potassium (urinary)” value ([1]; 100 mg/kg by gavage) was 0.61 MEQ/5 Hours, the “Sodium (urinary)” value ([1]; 100 mg/kg by gavage) was 1.13 MEQ/5 Hours and the “Volume (urine)” value ([1]; 100 mg/kg by gavage) was 10.5 mL.

For `O=C(N=P1(c2ccccc2)c2ccccc2Oc2ccccc21)OCC1CC1` [10-[[(Cyclopropylmethoxy)carbonyl]imino]-10,10-dihydro-10-phenyl-10H-phenoxaphosphine], the “Potassium (urinary)” value ([1]; 100 mg/kg by gavage) was 0.75 MEQ/5 Hours, the “Sodium (urinary)” value ([1]; 100 mg/kg by gavage) was 1.41 MEQ/5 Hours and the “Volume (urine)” value ([1]; 100 mg/kg by gavage) was 10.8 mL.

In the case of `COC(=O)N=P1(c2ccccc2)c2ccccc2Oc2ccccc21` [10,10-Dihydro-10-[(methoxycarbonyl)imino]-10-phenyl-10H-phenoxaphosphine], the “Potassium (urinary)” value ([1]; 100 mg/kg by gavage) is reported as 0.74 MEQ/5 Hours, the “Sodium (urinary)” value ([1]; 100 mg/kg by gavage) is reported as 1.48 MEQ/5 Hours and the “Volume (urine)” value ([1]; 100 mg/kg by gavage) is reported as 14.0 mL.

In the case of `O=C(N=P1(c2ccccc2)c2ccccc2Oc2ccccc21)OC1CCCC1` [10-[[(Cyclopentyloxy)carbonyl]imino]-10,10-dihydro-10-phenyl-10H-phenoxaphosphine], the “Potassium (urinary)” value ([1]; 100 mg/kg by gavage) is reported as 0.60 MEQ/5 Hours, the “Sodium (urinary)” value ([1]; 100 mg/kg by gavage) is reported as 1.71 MEQ/5 Hours and the “Volume (urine)” value ([1]; 100 mg/kg by gavage) is reported as 14.0 mL.

In the case of `CCOC(=O)N=P1(c2ccccc2)c2ccccc2Oc2ccccc21` [10,10-Dihydro-10-[(ethoxycarbonyl)imino]-10-phenyl-10H-phenoxaphosphine], the “Potassium (urinary)” value ([1]; 100 mg/kg by gavage) is reported as 0.49 MEQ/5 Hours, the “Sodium (urinary)” value ([1]; 100 mg/kg by gavage) is reported as 2.20 MEQ/5 Hours and the “Volume (urine)” value ([1]; 100 mg/kg by gavage) is reported as 19.0 mL. For the same molecule, the “Percent Inhibition of Plasma Renin Elevation, Av. % Inhibition” value (“Percent Inhibition … Av. % Inhibition” for short) (plasma renin activity; 1 mg/kg) was 33%, the “Percent Inhibition … Av. % Inhibition” value (plasma renin activity; 2 mg/kg) was 54% and the “Percent Inhibition … Av. % Inhibition” value (plasma renin activity; 4 mg/kg) was 78%. The “Percent Inhibition … Av. % Inhibition” value (plasma renin activity; 8 mg/kg) was 91% and the “Percent Inhibition … Av. % Inhibition” value (plasma renin activity; 25 mg/kg) was 84%.

For `O=C(N=P1(c2ccccc2)c2ccccc2Oc2ccccc21)OCc1ccccc1` [10,10-Dihydro-10-phenyl-10-[[(phenylmethoxy)carbonyl]imino]-10H-phenoxaphosphine], the “Potassium (urinary)” value ([1]; 100 mg/kg by gavage) was 0.56 MEQ/5 Hours, the “Sodium (urinary)” value ([1]; 100 mg/kg by gavage) was 1.32 MEQ/5 Hours and the “Volume (urine)” value ([1]; 100 mg/kg by gavage) was 12.3 mL.

In the case of `CC(C)COC(=O)N=P1(c2ccccc2)c2ccccc2Oc2ccccc21` [10,10-Dihydro-10-[[(2-methylpropoxy)carbonyl]-imino]-10-phenyl-10H-phenoxaphosphine], the “Potassium (urinary)” value ([1]; 100 mg/kg by gavage) is reported as 0.64 MEQ/5 Hours, the “Sodium (urinary)” value ([1]; 100 mg/kg by gavage) is reported as 1.63 MEQ/5 Hours and the “Volume (urine)” value ([1]; 100 mg/kg by gavage) is reported as 12.8 mL.

In the case of `CC(C)OC(=O)N=P1(c2ccccc2)c2ccccc2Oc2ccccc21` [10,10-Dihydro-10-[[(1-methylethoxy)carbonyl]imino]-10-phenyl-10H-phenoxaphosphine], the “Potassium (urinary)” value ([1]; 100 mg/kg by gavage) is reported as 0.66 MEQ/5 Hours, the “Sodium (urinary)” value ([1]; 100 mg/kg by gavage) is reported as 2.30 MEQ/5 Hours and the “Volume (urine)” value ([1]; 100 mg/kg by gavage) is reported as 16.5 mL.

In the case of `N=P1(c2ccccc2)c2ccccc2Oc2ccccc21` [10,10-Dihydro-10-imino-10-phenyl-10H-phenoxaphosphine, sulfa] [10,10-Dihydro-10-imino-10-phenyl-10H-phenoxaphosphine, sulfate], the “Potassium (urinary)” value ([1]; 100 mg/kg by gavage) is reported as 0.18 MEQ/5 Hours, the “Sodium (urinary)” value ([1]; 100 mg/kg by gavage) is reported as 1.56 MEQ/5 Hours and the “Volume (urine)” value ([1]; 100 mg/kg by gavage) is reported as 9.8 mL. The stability in solution (Stability in solution) was “stable in solution”, the “Percent Inhibition … Av. % Inhibition” value (plasma renin activity; 1 mg/kg) was 38% and the “Percent Inhibition … Av. % Inhibition” value (plasma renin activity; 4 mg/kg) was 31% and 42%. The “Percent Inhibition … Av. % Inhibition” value (plasma renin activity; 8 mg/kg) was 67%.
